From patent publication US20080280862A1, “Methods, compositions, and kits for the treatment of pain” (priority 2007, published 2008)

What was measured:
TNFα = TNFα secretion by human white blood cells stimulated with PMA/ionomycin, synergy score; format: cell-based; parameters: key: S = Σ Idata(Idata−ILoewe) × ln dilution factors; volume over Loewe additivity; settings: PBMC stimulated with PMA/Ionomycin
Protocol: A 100 μl suspension of diluted human white blood cells contained within each well of a polystyrene 384-well plate (NalgeNunc) was stimulated to secrete TNFα by treatment with a final concentration of 10 ng/mL phorbol 12-myristate 13-acetate (Sigma, P-1585) and 750 ng/mL ionomycin (Sigma, I-0634). Various concentrations of each test compound were added at the time of stimulation. After 16-18 hours of incubation at 37° C. in a humidified incubator, the plate was centrifuged and the supernatant transferred to a white opaque polystyrene 384-well plate (NalgeNunc, Maxisorb) coated with an anti-TNFα antibody (PharMingen, #551220). After a two-hour incubation, the plate was washed (Tecan PowerWasher 384) with PBS containing 0.1% Tween 20 and incubated for an additional one hour with another anti-TNFα antibody that was biotin labeled (PharMingen, #554511) and HRP coupled to strepavidin (PharMingen, #13047E). After the plate was washed with 0.1% Tween 20/PBS, an HRP-luminescent substrate was added to each well and light intensity measured using a LJL Analyst plate luminometer.
The synergy scores calculated for the various combinations of compounds set forth in Table 3 was calculated by the formula S=log fX log fYΣIdata(Idata−ILoewe), summed over all non-single-agent concentration pairs, and where log fX,Y are the natural logarithm of the dilution factors used for each single agent. This effectively calculates a volume between the measured and Loewe additive response surfaces, weighted towards high inhibition and corrected for varying dilution factors.

[1] = test system: carrageenan-induced pain model in rats; test: Carrageenan pain model, mechanical allodynia by Von Frey filaments; format: in vivo, Sprague-Dawley rats; settings: for Mean change from baseline ± SEM: 25 mg/kg; for mean change from baseline: Table 4, 25 mg/kg ip
Protocol: The carrageenan model is a fast, reliable model used to assess the ability of analgesics to block inflammatory pain. The analgesic effects of test article combinations on pain generation are assayed using the carrageenan-induced pain model in rats. Adult male Sprague-Dawley rats are administered study drugs intraperitoneally (vehicle, tricyclic compound (TCA), steroid or TCA/Steroid test article combinations) once daily for 2 days (day −2 and day −1) and 30 minutes prior to the carrageenan injection on day 0 (time=0). For the carrageenan injection, animals are lightly anesthetized and 0.1 ml of 2% carrageenan is injected into the plantar surface of the right hind paw. The positive control diclofenac at a dose of 25 mg/kg is administered intraperitoneally immediately before the carrageenan injection. Paw volumes (right and left) are measured using a plathysmometer before drug administration on day −2 and serve as a baseline measurement. The paw volumes are measured again two hours post carrageenan injection. The degree of mechanical allodynia is measured by a blinded observer using Von Frey filaments applied to the plantar surface of the hind paws in an increasing numerical order. Each filament increases the force applied on the paw. The filaments are applied until animal paw withdrawal is achieved. This procedure is carried out before drug administration (day −2), on day −1 and on day 0 at time=0, 20, 40, 60, 80 and 120 minutes post-carrageenan. The force (expressed in grams) required for paw withdrawal after carrageenan injection is subtracted from the force required for paw withdrawal before carrageenan injection. Results are expressed as mean change from baseline across five timepoints post carrageenan injection in Table 4.
For a synergy calculation, experimental data from the carrageenan study are fitted to a median-effect model and used to calculate the parameters' median-effect dose (Dm), slope (m), correlation coefficient (r), combination index (CI) and dose-reduction index (DRI). In addition, the probability of pain inhibition occurring after single-component (nortriptyline) versus the combination drug treatments are calculated from the negative change from baseline data using a Bayesian sensitivity analysis. The likelihood of pain inhibition is characterized for nortriptyline administered alone (1 mg/kg or 3 mg/kg) versus the fixed-dose combination treatments [prednisolone (0.3 mg/kg):nortriptyline (1 mg/kg) or prednisolone (1 mg/kg):nortriptyline (3 mg/kg)] each evaluated at 60 and 80 minutes for analgesic effect.
In another example, the effects of test article combinations on pain inhibition were assayed using the carrageenan model in rodents. Desipramine was tested alone and in combination at 0.3, 1, and 3 mg/kg and prednisolone was tested similarly at 0.3, 1 and 3 mg/kg IP.

[2] = test system: formalin-induced pain model in rats; test: Formalin pain model, nociceptive behaviors; format: in vivo, Sprague-Dawley rats; settings: 20 mg/kg
Protocol: The formalin model is a fast, reliable model used to assess potential analgesics ability to block inflammatory pain. The analgesic effects of test article combinations on pain generation are assayed using the formalin-induced pain model in rats. Adult male Sprague-Dawley rats are administered intraperitoneally study drugs (vehicle, TCA, steroid or TCA/Steroid test article combinations) once daily for 2 days (day −2 and day −1) and 30 minutes prior to the formalin injection day on day 0 (time=0). […] To elicit a pain response, dilute formalin (2% in saline) is injected under the skin of the plantar surface of the right hindpaw. The animal is placed in an observation chamber. The pain response is a characteristic biphasic response pattern of nociceptive behaviors (lifting, licking, and biting of the injected paw). Two distinct periods of nociceptive behaviors/activity are observed and recorded: an early phase (phase I) lasting the first 5-10 min and a late phase (phase II) lasting 20-40 min after the injection of formalin. One hour of data is collected (time spent displaying pain behavior) by a blinded observer using a stopwatch. Results are expressed as the number of pain behaviors per 5 minute periods (Table 8 and Table 9).

[3] = combination with Hydrocortisone

Clc1ccc2c(c1)C(N1CCNCC1)=Nc1ccccc1O2 [Amoxapine]
Synergy Score based on TNF-α inhibition (TNFα; combination with Betamethasone): 0.68
Synergy Score based on TNF-α inhibition (TNFα; combination with Budesonide): 0.63
Synergy Score based on TNF-α inhibition (TNFα; combination with Dexamethasone): 1.3
Synergy Score based on TNF-α inhibition (TNFα; [3]): 0.56
Synergy Score based on TNF-α inhibition (TNFα; combination with Prednisolone): 1.1
Synergy Score based on TNF-α inhibition (TNFα; combination with Triamcinolone): 0.37

CNCCCN1c2ccccc2CCc2ccccc21 [Desipramine]
Synergy Score based on TNF-α inhibition (TNFα; combination with Betamethasone): 0.69
Synergy Score based on TNF-α inhibition (TNFα; combination with Budesonide): 1
Synergy Score based on TNF-α inhibition (TNFα; combination with Clobetasol): 0.52
Synergy Score based on TNF-α inhibition (TNFα; combination with Dexamethasone): 1.6
Synergy Score based on TNF-α inhibition (TNFα; combination with Diflorasone): 0.5
Synergy Score based on TNF-α inhibition (TNFα; [3]): 0.74
Synergy Score based on TNF-α inhibition (TNFα; combination with Prednisolone): 1.3
Synergy Score based on TNF-α inhibition (TNFα; combination with Triamcinolone): 0.44

CN1CCC(=C2c3ccccc3C=Cc3ccccc32)CC1 [Cyproheptadine]
Synergy Score based on TNF-α inhibition (TNFα; combination with Betamethasone): 0.8
Synergy Score based on TNF-α inhibition (TNFα; combination with Budesonide): 0.56
Synergy Score based on TNF-α inhibition (TNFα; combination with Dexamethasone): 1.3
Synergy Score based on TNF-α inhibition (TNFα; [3]): 0.75
Synergy Score based on TNF-α inhibition (TNFα; combination with Prednisolone): 1.3
Synergy Score based on TNF-α inhibition (TNFα; combination with Triamcinolone): 0.57

O=C(O)Cc1ccccc1Nc1c(Cl)cccc1Cl [Diclofenac]
Mean AUC ± SEM ([1]; 25 mg/Kg, AUC from 20 minutes through 120 minutes following carrageenan injection): 5332 ± 772.96
Mean change from baseline ± SEM ([1]; Experiment One, 20 minutes): -17.50 ± 11.24 g
Mean change from baseline ± SEM ([1]; Experiment One, 40 minutes): -74.70 ± 13.27 g
Mean change from baseline ± SEM ([1]; Experiment One, 60 minutes): -146.70 ± 16.73 g
Mean change from baseline ± SEM ([1]; Experiment One, 80 minutes): -203.30 ± 15.02 g
Mean change from baseline ± SEM ([1]; Experiment One, 120 minutes): -259.90 ± 15.14 g
Mean change from baseline ± SEM ([1]; Experiment Two, first set of rows, 20 minutes): 5.91 ± 7.99 g
Mean change from baseline ± SEM ([1]; Experiment Two, first set of rows, 40 minutes): 3.89 ± 5.82 g
Mean change from baseline ± SEM ([1]; Experiment Two, first set of rows, 60 minutes): 5.94 ± 10.01 g
Mean change from baseline ± SEM ([1]; Experiment Two, first set of rows, 80 minutes): -2.47 ± 9.56 g
Mean change from baseline ± SEM ([1]; Experiment Two, first set of rows, 120 minutes): -11.26 ± 8.92 g
Mean change from baseline ± SEM ([1]; Experiment Two, second set of rows, 20 minutes): -8.50 ± 5.56 g
Mean change from baseline ± SEM ([1]; Experiment Two, second set of rows, 40 minutes): -12.75 ± 6.22 g
Mean change from baseline ± SEM ([1]; Experiment Two, second set of rows, 60 minutes): -8.50 ± 8.50 g
Mean change from baseline ± SEM ([1]; Experiment Two, second set of rows, 80 minutes): -12.75 ± 6.22 g
Mean change from baseline ± SEM ([1]; Experiment Two, second set of rows, 120 minutes): -17.75 ± 6.74 g
mean change from baseline ([1]; 20 minutes post carrageenan): −17.50 ± 11.24 grams
mean change from baseline ([1]; 40 minutes post carrageenan): −74.70 ± 13.27 grams
mean change from baseline ([1]; 60 minutes post carrageenan): −146.70 ± 16.73 grams
mean change from baseline ([1]; 80 minutes post carrageenan): −203.30 ± 15.02 grams
mean change from baseline ([1]; 120 minutes post carrageenan): −259.90 ± 15.14 grams

CN1CC[C@]23c4c5ccc(O)c4O[C@H]2[C@@H](O)C=C[C@H]3[C@H]1C5 [Morphine]
Mean number of behaviors per 5 minute block ([2]; Experiment One, amitriptyline, 5 minutes): 116.0 ± 39.2
Mean number of behaviors per 5 minute block ([2]; Experiment One, amitriptyline, 10 minutes): 19.0 ± 13.7
Mean number of behaviors per 5 minute block ([2]; Experiment One, amitriptyline, 15 minutes): 17.0 ± 10.4
Mean number of behaviors per 5 minute block ([2]; Experiment One, amitriptyline, 20 minutes): 53.0 ± 32.2
Mean number of behaviors per 5 minute block ([2]; Experiment One, amitriptyline, 25 minutes): 77.0 ± 40.2
Mean number of behaviors per 5 minute block ([2]; Experiment One, amitriptyline, 30 minutes): 65.0 ± 36.2
Mean number of behaviors per 5 minute block ([2]; Experiment One, amitriptyline, 35 minutes): 66.0 ± 34.4
Mean number of behaviors per 5 minute block ([2]; Experiment One, amitriptyline, 40 minutes): 58.0 ± 33.3
Mean number of behaviors per 5 minute block ([2]; Experiment One, amitriptyline, 45 minutes): 33.0 ± 22.6
Mean number of behaviors per 5 minute block ([2]; Experiment One, amitriptyline, 50 minutes): 11.0 ± 10.3
Mean number of behaviors per 5 minute block ([2]; Experiment One, amitriptyline, 55 minutes): 2.0 ± 1.1
Mean number of behaviors per 5 minute block ([2]; Experiment One, amitriptyline, 60 minutes): 1.0 ± 0.6
Mean number of behaviors per 5 minute block ([2]; Experiment One, nortriptyline, 5 minutes): 120.0 ± 25.2
Mean number of behaviors per 5 minute block ([2]; Experiment One, nortriptyline, 10 minutes): 7.0 ± 5.3
Mean number of behaviors per 5 minute block ([2]; Experiment One, nortriptyline, 15 minutes): 2.0 ± 1.5
Mean number of behaviors per 5 minute block ([2]; Experiment One, nortriptyline, 20 minutes): 2.0 ± 1.1
Mean number of behaviors per 5 minute block ([2]; Experiment One, nortriptyline, 25 minutes): 1.0 ± 0.4
Mean number of behaviors per 5 minute block ([2]; Experiment One, nortriptyline, 30 minutes): 0.0 ± 0.0
Mean number of behaviors per 5 minute block ([2]; Experiment One, nortriptyline, 35 minutes): 0.0 ± 0.4
Mean number of behaviors per 5 minute block ([2]; Experiment One, nortriptyline, 40 minutes): 1.0 ± 1.2
Mean number of behaviors per 5 minute block ([2]; Experiment One, nortriptyline, 45 minutes): 20.0 ± 20.0
Mean number of behaviors per 5 minute block ([2]; Experiment One, nortriptyline, 50 minutes): 29.0 ± 28.6
Mean number of behaviors per 5 minute block ([2]; Experiment One, nortriptyline, 55 minutes): 29.0 ± 29.1
Mean number of behaviors per 5 minute block ([2]; Experiment One, nortriptyline, 60 minutes): 55.0 ± 36.4
Mean number of behaviors per 5 minute block ([2]; Experiment Two, 5 minutes): 64.0 ± 35.3
Mean number of behaviors per 5 minute block ([2]; Experiment Two, 10 minutes): 3.0 ± 3.0
Mean number of behaviors per 5 minute block ([2]; Experiment Two, 15 minutes): 0.0 ± 0.0
Mean number of behaviors per 5 minute block ([2]; Experiment Two, 20 minutes): 0.0 ± 0.4
Mean number of behaviors per 5 minute block ([2]; Experiment Two, 25 minutes): 0.0 ± 0.3
Mean number of behaviors per 5 minute block ([2]; Experiment Two, 30 minutes): 1.0 ± 1.1
Mean number of behaviors per 5 minute block ([2]; Experiment Two, 35 minutes): 1.0 ± 0.9
Mean number of behaviors per 5 minute block ([2]; Experiment Two, 40 minutes): 0.0 ± 0.1
Mean number of behaviors per 5 minute block ([2]; Experiment Two, 45 minutes): 8.0 ± 8.2
Mean number of behaviors per 5 minute block ([2]; Experiment Two, 50 minutes): 25.0 ± 16.4
Mean number of behaviors per 5 minute block ([2]; Experiment Two, 55 minutes): 56.0 ± 35.9
Mean number of behaviors per 5 minute block ([2]; Experiment Two, 60 minutes): 51.0 ± 36.9
